{"source": "ChEMBL document CHEMBL5356997", "about": "“Maydistacins A-G, Terpestacin-type Sesterterpenoids with Anti-inflammatory Activity from the Phytopathogenic Fungus Bipolaris maydis” (J Nat Prod, 2024)", "key": {"[1]": {"experiment": "Cytotoxicity against mouse RAW264.7 cells assessed as cell survival at 50 uM by MTT assay relative to control", "format": "toxicity, cell-based", "conditions": "read-out: Activity"}, "RAW264.7 [2]": {"tested_on": "RAW264.7", "experiment": "Antiinflammatory activity against LPS-stimulated mouse RAW264.7 cells assessed as inhibition of NO production preincubated with compound for 2 hrs followed by LPS stimulation and measured after 12 hrs by Griess reagent based microplate reader analysis", "format": "functional, cell-based"}, "RAW264.7 [3]": {"tested_on": "RAW264.7", "experiment": "Antiinflammatory activity against LPS-stimulated mouse RAW264.7 cells assessed as inhibition of NO production at 50 uM preincubated with compound for 2 hrs followed by LPS stimulation and measured after 12 hrs by Griess reagent based microplate reader analysis relative to control", "format": "functional", "conditions": "time 14 hrs"}}}
{"smiles": "C/C1=C\\C[C@]2(C)C(=O)C(O)=C([C@H](C)CO)[C@H]2C/C=C(\\C)C(=O)CC/C(C)=C/CC1", "values": [{"measurement": "viability at 50 µM", "setting": "[1]", "result": "> 90", "unit": "%"}, {"measurement": "IC50", "setting": "RAW264.7 [2]", "result": 19, "unit": "µM"}]}
{"smiles": "C/C1=C\\C[C@]2(C)C(=O)C(O)=C([C@H](C)CO)[C@H]2C[C@H]2O[C@]2(C)[C@@H](O)CC/C(C)=C/CC1", "values": [{"measurement": "viability at 50 µM", "setting": "[1]", "result": "> 90", "unit": "%"}, {"measurement": "inhibition at 50 µM", "setting": "RAW264.7 [3]", "result": "< 40", "unit": "%"}]}
{"smiles": "CC(=O)O[C@H]1CC/C(C)=C/CC/C(C)=C/C[C@]2(C)C(=O)C(O)=C([C@H](C)CO)[C@H]2C/C=C/1C", "values": [{"measurement": "viability at 50 µM", "setting": "[1]", "result": "> 90", "unit": "%"}, {"measurement": "inhibition at 50 µM", "setting": "RAW264.7 [3]", "result": "< 40", "unit": "%"}]}
{"smiles": "C/C1=C\\C[C@]2(C)C(=O)C(O)=C([C@H](C)CO)[C@H]2C/C=C(\\C)[C@@H]2CC[C@](C)(/C=C/C1)O2", "values": [{"measurement": "viability at 50 µM", "setting": "[1]", "result": "> 90", "unit": "%"}, {"measurement": "inhibition at 50 µM", "setting": "RAW264.7 [3]", "result": "< 40", "unit": "%"}]}
{"smiles": "CC(=O)OC[C@@H](C)C1=C(O)C(=O)[C@@]2(C)C/C=C(\\C)C/C=C/[C@](C)(O)CC[C@@H](O)/C(C)=C/C[C@H]12", "values": [{"measurement": "viability at 50 µM", "setting": "[1]", "result": "> 90", "unit": "%"}, {"measurement": "inhibition at 50 µM", "setting": "RAW264.7 [3]", "result": "< 40", "unit": "%"}]}
{"smiles": "CC(=O)OC[C@@H](C)C1=C(O)C(=O)[C@@]2(C)C/C=C(\\C)CC/C=C(\\C)CC[C@H](O)[C@@]3(C)O[C@@H]3C[C@H]12", "values": [{"measurement": "viability at 50 µM", "setting": "[1]", "result": "> 90", "unit": "%"}, {"measurement": "inhibition at 50 µM", "setting": "RAW264.7 [3]", "result": "< 40", "unit": "%"}]}
{"smiles": "CC(=O)OC[C@@H](C)C1=C(O)C(=O)[C@@]2(C)C/C=C(\\C)CC[C@@H]3O[C@@]3(C)CC[C@H](O)/C(C)=C/C[C@H]12", "values": [{"measurement": "viability at 50 µM", "setting": "[1]", "result": "> 90", "unit": "%"}, {"measurement": "inhibition at 50 µM", "setting": "RAW264.7 [3]", "result": "< 40", "unit": "%"}]}
{"smiles": "C[C@@H]1C[C@H]2[C@@H]3CCC4=CC(=O)C=C[C@]4(C)[C@@]3(F)[C@@H](O)C[C@]2(C)[C@@]1(O)C(=O)CO", "note": "[DEXAMETHASONE]", "values": [{"measurement": "IC50", "setting": "RAW264.7 [2]", "result": 6.7, "unit": "µM"}]}
{"smiles": "CC(=O)OC[C@@H](C)C1=C(O)C(=O)[C@@]2(C)C/C=C(\\C)CC/C=C(\\C)CC[C@H](O)/C(C)=C/C[C@H]12", "note": "[FUSAPROLIFERIN]", "values": [{"measurement": "viability at 50 µM", "setting": "[1]", "result": "> 90", "unit": "%"}, {"measurement": "inhibition at 50 µM", "setting": "RAW264.7 [3]", "result": "< 40", "unit": "%"}]}
{"smiles": "C/C1=C\\C[C@]2(C)C(=O)C(O)=C([C@H](C)CO)[C@H]2C/C=C(\\C)[C@@H](O)CC/C(C)=C/CC1", "note": "[TERPESTACIN]", "values": [{"measurement": "viability at 50 µM", "setting": "[1]", "result": "> 90", "unit": "%"}, {"measurement": "inhibition at 50 µM", "setting": "RAW264.7 [3]", "result": "< 40", "unit": "%"}]}
